Earlier results as cited in article PMC11370232, “Repurposing of a library for high-content screening of inhibitors against Echinococcus granulosus” (Parasites & Vectors, 2024).
Counter-ions that a name gives are not always drawn.

Assays:
[1] = test system: Akt1; set-up: method as in SelleckChem library description; details: ref SelleckChem library description; cited from earlier work
[2] = test system: Akt2; set-up: method as in SelleckChem library description; details: ref SelleckChem library description; cited from earlier work
[3] = test system: Akt3; set-up: method as in SelleckChem library description; details: ref SelleckChem library description; cited from earlier work
[4] = test system: p70S6K; set-up: method as in SelleckChem library description; details: ref SelleckChem library description; cited from earlier work
[5] = test system: PKA; set-up: method as in SelleckChem library description; details: ref SelleckChem library description; cited from earlier work
[6] = test system: ROCKI; set-up: method as in SelleckChem library description; details: ref SelleckChem library description; cited from earlier work
[7] = test system: ROCKII; set-up: method as in SelleckChem library description; details: ref SelleckChem library description; cited from earlier work
[8] = test system: CDK1, 2, 4, 6 and 9; set-up: method as in SelleckChem library description; details: read-out: IC50, CDK1, 2, 4, 6 and 9; cell-free assays; ref SelleckChem library description; cited from earlier work
[9] = test system: Pim1; set-up: method as in SelleckChem library description; details: ref SelleckChem library description; cited from earlier work
[10] = test system: Pim2; set-up: method as in SelleckChem library description; details: ref SelleckChem library description; cited from earlier work
[11] = test system: Pim3; set-up: method as in SelleckChem library description; details: ref SelleckChem library description; cited from earlier work
[12] = target: DNA synthesis; set-up: method as in SelleckChem library description; details: cell-free assay; ref SelleckChem library description; cited from earlier work
[13] = test system: EGFR(L858R); details: ref SelleckChem library description; cited from earlier work
[14] = test system: EGFR(E746_A750); set-up: method as in SelleckChem library description; details: ref SelleckChem library description; cited from earlier work
[15] = test system: Rac1 in MDA-MB-435 and MDA-MB-231 cells; set-up: method as in SelleckChem library description; details: ref SelleckChem library description; cited from earlier work
[16] = target: glucokinase (GK); set-up: method as in SelleckChem library description; details: ref SelleckChem library description; read-out: EC50, glucokinase activation; cited from earlier work
[17] = target: Bcl-2; set-up: method as in SelleckChem library description; details: cell-free assay; ref SelleckChem library description; cited from earlier work
[18] = test system: EGFR; set-up: method as in SelleckChem library description; details: ref SelleckChem library description; cited from earlier work
[19] = test system: PDGFR; set-up: method as in SelleckChem library description; details: ref SelleckChem library description; cited from earlier work
[20] = test system: HER2; set-up: method as in SelleckChem library description; details: ref SelleckChem library description; cited from earlier work

SMILES: NC[C@@](O)(c1ccc(Cl)cc1)c1ccc(-c2cn[nH]c2)cc1 [AT13148]
- IC50 [1]: 38 nM
- IC50 [2]: 402 nM
- IC50 [3]: 50 nM
- IC50 [4]: 8 nM
- IC50 [5]: 3 nM
- IC50 [6]: 6 nM
- IC50 [7]: 4 nM

SMILES: CN1CCCN(C(=O)c2cccc(-c3ccc(/C=C4/C(=O)Nc5ccc(Cl)cc54)o3)c2)CC1 [CX-6258 HCl]
- IC50 [10]: 25 nM
- IC50 [11]: 16 nM

SMILES: COc1cccc2c1C(=O)c1c(O)c3c(c(O)c1C2=O)C[C@@](O)(C(C)=O)C[C@@H]3O[C@H]1C[C@H](N)[C@H](O)[C@H](C)O1 [Daunorubicin HCl]
- Ki [12]: 20 nM

SMILES: C=CC(=O)Nc1cccc(Oc2nc(Nc3ccc(N4CCN(C)CC4)cc3)ncc2Cl)c1 [WZ3146]
- IC50 [13]: 2 nM
- IC50 [14]: 2 nM

SMILES: CCn1c2ccccc2c2cc(Nc3ccnc(NCCCN4CCOCC4)n3)ccc21 [EHop-016]
- IC50 [15]: 1100 nM

SMILES: O=C(Nc1ncc(SCCN2CCCC2)s1)[C@]1(c2ccc(S(=O)(=O)C3CC3)cc2)C[C@H]1C1CCCCC1 [LY2608204]
- EC50 [16]: 42 nM

SMILES: COC1=CC(c2cc3ccccc3[nH]2)=N/C1=C\c1[nH]c(C)cc1C [Obatoclax Mesylate (GX15-070), Obatoclax Mesylate]
- Ki [17]: 220 nM

SMILES: CC(C)(C)c1cc(C=C(C#N)C#N)cc(C(C)(C)C)c1O [Tyrphostin 9]
- IC50 [18]: 460000 nM
- IC50 [19]: 500 nM

SMILES: CN(C)C/C=C/C(=O)Nc1cc2c(Nc3ccc(F)c(Cl)c3)ncnc2cc1O[C@H]1CCOC1 [Afatinib (BIBW2992) Dimaleate]
- IC50 [20]: 14 nM
